Source: patent publication US20210113650A1, “NANOMOLECULES FOR THE TREATMENT OF INFLAMMATORY BOWEL DISEASES” (Northwestern University, priority 2018, published 2021)
*: point of attachment. Palmitoyl = CCCCCCCCCCCCCCCC(=O)*

Assays:
Format in all cases: in vivo, mouse
[1] = test system: SAMP1/YitFcsJ mice (Crohn's mice); test: Cell/marker and cytokine expression in intestinal tissue after direct injection into inflamed intestinal lesions; settings: 5 weeks post-surgery, compared to AIF-PAC and saline injected control animals
Protocol: (§1) In order to treat inflammatory lesions that have formed in the intestinal tracts, the following was performed:
(§2) Mice (10 weeks of age, female) were brought to the operating room where they were weighed, the abdomen shaved to remove hair, and given Buprenorphine (0.05 mg/kg) administered subcutaneously. At the time of surgery, anesthesia was induced with isoflurane (2%) with 02 and the mice were prepped with providine-iodine three times prior to initiating the operation. All mice received a 100 mg/kg dose of IP piperacillin/tazobactam IP followed by a midline abdominal incision (1.0-1.5 cm) made in the linea albea to gain access to the peritoneum. The intestines were then identified in the peritoneal cavity. Following intestinal exposure and identification of intestinal lesions, the anti-inflammatory peptide amphiphiles, [AIF-PA1 (treatment; 2 wt/%) or AIF-PAC (control; 2 wt/%)] or saline (control) were independently injected (20-40 μl) into multiple lesions of the several SAMP1/YitFcsJ mice. Following the surgical procedure, organs were relocated to their original anatomical positions. The abdomen was closed in 2 layers (muscle and skin) with 3-0 PDS suture. After recovery, they were placed back into cages with non-edible bedding and provided ad lib water and liquid diet for the first 7 post-operative days and then returned to ad lib chow. Animals were sacrificed at the 15 weeks of age. Animals were euthanized 5 weeks post-surgery and intestinal tissue was explanted, sectioned and stained with relevant inflammation based antibodies. Tissue samples were subsequently quantified, and the results are depicted in FIGS. 1-3.

[2] = test system: SAMP1/YitFcsJ mice (Crohn's mice); test: Inflammatory intestinal lesion size after direct injection into inflamed intestinal lesions; settings: 5 weeks post-injection, pre- versus post-injection, compared to AIF-PAC and saline injected control animals
Protocol: as §1
as §2, with “After recovery, they were placed back into cages with non-edible bedding and provided ad lib water and liquid diet for the first 7 post-operative days and then returned to ad lib chow. Animals were sacrificed at the 15 weeks of age. Animals were euthanized 5 weeks post-surgery and intestinal tissue was explanted, sectioned and stained with relevant inflammation based antibodies.” left out

[3] = test system: SAMP1/YitFcsJ mice (Crohn's mice); test: Cell/marker and cytokine expression in intestinal tissue after systemic (tail vein) injection; settings: 5 weeks, compared to AIFC-PA6/LDT and untreated control animals
Protocol: as §1
Mice (10 weeks of age, female; n=4-7 per group) were brought to the animal holding/surgical room where they were weighed. Animals were placed in a restrainer and independently injected with the aforementioned anti-inflammatory peptide amphiphiles, [AIF-PA1/LDT (treatment; 1 mM) or AIFC-PA6/LDT (control; 1 mM] or untreated/no treatment control group. Approximately 100 μl of solution was injected into the tail vein of the mice. Animals were sacrificed at the 15 weeks of age. Animals were euthanized 5 weeks post-surgery and intestinal tissue was explanted, sectioned and stained with relevant inflammation based antibodies and data was quantified. Gross tissue samples were examined for pathology. Quantified data and results are summarized in FIGS. 4-6.

Substance: C16-VVVAAAEEEMQMKKVLDS (Palmitoyl-VVVAAAEEEMQMKKVLDS-NH2; SMILES CCCCCCCCCCCCCCCC(=O)N[C@H](C(=O)N[C@H](C(=O)N[C@H](C(=O)N[C@@H](C)C(=O)N[C@@H](C)C(=O)N[C@@H](C)C(=O)N[C@@H](CCC(=O)O)C(=O)N[C@@H](CCC(=O)O)C(=O)N[C@@H](CCC(=O)O)C(=O)N[C@@H](CCSC)C(=O)N[C@@H](CCC(N)=O)C(=O)N[C@@H](CCSC)C(=O)N[C@@H](CCCCN)C(=O)N[C@@H](CCCCN)C(=O)N[C@H](C(=O)N[C@@H](CC(C)C)C(=O)N[C@@H](CC(=O)O)C(=O)N[C@@H](CO)C(N)=O)C(C)C)C(C)C)C(C)C)C(C)C) [AIF-PA1]
- CD68 (macrophages) expression ([1]; 2 wt/%, 20-40 μl): statistically significant decrease
- MAdCAM1 expression ([1]; 2 wt/%, 20-40 μl): statistically significant decrease
- anti-inflammatory cytokine IL-10 expression ([1]; 2 wt/%, 20-40 μl): concomitant increase
- mast cell tryptase (mast cells) expression ([1]; 2 wt/%, 20-40 μl): statistically significant decrease
- IFNγ expression [1]: statistically significant decrease
- IL-1β expression [1]: statistically significant decrease
- IL-13 expression [1]: statistically significant decrease
- TNFα expression [1]: statistically significant decrease
- change in intestinal lesion size [2]: statistically significant decrease
- IFNγ expression [3]: statistically significant decrease
- IL-1β expression [3]: statistically significant decrease
- IL-13 expression [3]: statistically significant decrease
- TNFα expression [3]: statistically significant decrease
